Source: ChEMBL document CHEMBL4043199, “Synthesis and optimization of 4,5,6,7-tetrahydrooxazolo[4,5-c]pyridines as potent and orally-active metabotropic glutamate receptor 5 negative allosteric modulators” (Bioorg Med Chem Lett, 2017)
pIC50: −log10 of the molar value. ≈ marks a conversion by molar mass, not a printed value. One block for each compound: values may come before it. Calls of active or inactive are those of the source. The rule behind the calls is not given here.

Key:
[1] = target: Metabotropic glutamate receptor 5 (Homo sapiens, UniProt P41594); assay: Negative allosteric modulation of human recombinant mGluR5 expressed in HEK293 cells assessed as inhibition of glutamate-induced calcium mobilization preincubated for 2 mins followed glutamate addition measured by fluorescence assay; type: functional, cell-based
Rattus norvegicus [2] = assay: Ex vivo receptor occupancy at mGluR5 in Sprague-Dawley rat brain po administered daily for 4 days in presence of [3H]-MPEPy by liquid scintillation counting method; type: functional, organism-based
[3] = Aqueous solubility of compound at pH 7.4; type: physicochemical; conditions: aqueous medium
Cytochrome P450 3A4 = Cytochrome P450 3A4 (Homo sapiens, UniProt P08684); assay: Inhibition of CYP3A4 in human liver microsomes using midazolam as substrate after 10 mins by LC-MS/MS analysis; type: ADME
[4] = Volume of distribution at steady state in rat at 0.35 mg/kg, iv after 24 hrs; type: ADME, organism-based; conditions: in vivo, read-out: Vdss
[5] = Metabolic stability in human hepatic microsomes assessed as parent compound remaining at 1 uM after 30 mins in presence of NADPH by LC-MS/MS analysis relative to control; type: ADME, Microsome; conditions: liver microsomes, read-out: Stability
Cytochrome P450 2D6 = Cytochrome P450 2D6 (Homo sapiens, UniProt P10635); assay: Inhibition of CYP2D6 in human liver microsomes using bufuralol as substrate after 10 mins by LC-MS/MS analysis; type: ADME
[6] = AUC in rat at 0.35 mg/kg, iv; type: ADME, organism-based; conditions: in vivo
Rattus norvegicus [7] = assay: Ex vivo receptor occupancy at mGluR5 in Sprague-Dawley rat brain at 0.3 mg/kg, po administered daily for 4 days in presence of [3H]-MPEPy by liquid scintillation counting method relative to control; type: functional
[8] = AUC in monkey at 0.5 mg/kg, iv; type: ADME, organism-based, Macaca mulatta; conditions: rhesus monkey, in vivo
[9] = Permeability of the compound at pH 7.4 by PAMPA; type: physicochemical; conditions: read-out: permeability
Salmonella typhimurium = assay: Genotoxicity in Salmonella typhimurium by Ames test; type: toxicity; conditions: salmonella enterica subsp. enterica serovar typhimurium
[10] = Metabolic stability in rat hepatic microsomes assessed as parent compound remaining at 1 uM after 30 mins in presence of NADPH by LC-MS/MS analysis relative to control; type: ADME, Microsome; conditions: liver microsomes, read-out: Stability
[11] = Cmax in monkey at 10 mg/kg, po; type: ADME, organism-based, Macaca mulatta; parameters: dose 10 mg/kg, route oral; conditions: rhesus monkey, in vivo
[12] = Clearance in rat at 0.35 mg/kg, iv after 24 hrs; type: ADME, organism-based; conditions: in vivo
Rattus norvegicus [13] = assay: Toxicity in rat at 100 mg/kg, po qd administered via gavage for 14 days; type: organism-based; conditions: in vivo, 336 h
Cytochrome P450 1A2 = target: T1, Cytochrome P450 1A2 (Homo sapiens, UniProt P05177); assay: Inhibition of CYP1A2 in human liver microsomes using phenacetin as substrate after 10 mins by LC-MS/MS analysis; type: ADME
T1 sequence (P05177 whole entry): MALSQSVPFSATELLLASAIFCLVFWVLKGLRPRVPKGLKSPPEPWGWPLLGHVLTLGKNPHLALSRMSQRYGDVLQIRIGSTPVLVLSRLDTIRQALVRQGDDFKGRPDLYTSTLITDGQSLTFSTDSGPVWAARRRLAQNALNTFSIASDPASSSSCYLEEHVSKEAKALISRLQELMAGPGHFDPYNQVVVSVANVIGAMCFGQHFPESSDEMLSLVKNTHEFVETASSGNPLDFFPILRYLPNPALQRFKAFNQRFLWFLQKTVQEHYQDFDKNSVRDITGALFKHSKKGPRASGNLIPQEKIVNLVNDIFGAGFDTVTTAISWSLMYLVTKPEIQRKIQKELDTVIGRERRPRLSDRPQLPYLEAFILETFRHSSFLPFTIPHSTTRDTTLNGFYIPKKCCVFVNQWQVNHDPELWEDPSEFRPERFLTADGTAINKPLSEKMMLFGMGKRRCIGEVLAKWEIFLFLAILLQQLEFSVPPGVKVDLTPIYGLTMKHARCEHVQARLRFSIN

[14] = Volume of distribution at steady state in monkey at 0.5 mg/kg, iv after 24 hrs; type: ADME, organism-based, Macaca mulatta; conditions: rhesus monkey, in vivo, read-out: Vdss
Cytochrome P450 2C8 = target: T2, Cytochrome P450 2C8 (Homo sapiens, UniProt P10632); assay: Inhibition of CYP2C8 in human liver microsomes using amodiaquine as substrate after 10 mins by LC-MS/MS analysis; type: ADME
T2 sequence (P10632 whole entry): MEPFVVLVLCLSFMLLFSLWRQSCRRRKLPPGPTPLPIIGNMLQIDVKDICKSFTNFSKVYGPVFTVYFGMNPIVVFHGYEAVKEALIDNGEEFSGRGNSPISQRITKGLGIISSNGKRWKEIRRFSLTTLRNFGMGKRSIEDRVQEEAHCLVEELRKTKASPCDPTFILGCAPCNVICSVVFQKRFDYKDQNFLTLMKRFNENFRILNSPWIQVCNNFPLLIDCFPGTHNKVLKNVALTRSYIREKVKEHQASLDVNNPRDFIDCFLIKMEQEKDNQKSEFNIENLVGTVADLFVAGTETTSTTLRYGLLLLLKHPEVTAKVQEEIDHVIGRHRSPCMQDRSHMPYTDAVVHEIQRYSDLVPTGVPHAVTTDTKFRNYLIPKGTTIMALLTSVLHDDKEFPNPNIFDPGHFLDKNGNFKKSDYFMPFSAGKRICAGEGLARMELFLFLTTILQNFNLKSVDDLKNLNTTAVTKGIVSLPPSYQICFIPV

Cytochrome P450 2C9 = Cytochrome P450 2C9 (Homo sapiens, UniProt P11712); assay: Inhibition of CYP2C9 in human liver microsomes using diclofenac as substrate after 10 mins by LC-MS/MS analysis; type: ADME
[15] = AUC in rat at 10 mg/kg, po; type: ADME, organism-based; conditions: in vivo
Rattus norvegicus [16] = assay: Antidepressant activity in Wistar rat assessed as decrease in immobility time at 0.3 to 1 mg/kg, po administered 15 mins post training session from day 2 to day 6 measured for 5 mins by forced swimming test; type: functional, organism-based
[17] = Half life in monkey at 0.5 mg/kg, iv; type: ADME, organism-based, Macaca mulatta; conditions: rhesus monkey, in vivo
[18] = target: Voltage-gated inwardly rectifying potassium channel KCNH2 (Homo sapiens, UniProt Q12809); assay: Inhibition of human ERG
[19] = Oral bioavailability in monkey at 10 mg/kg; type: ADME, organism-based, Macaca mulatta; conditions: rhesus monkey, in vivo
Cytochrome P450 2C19 = Cytochrome P450 2C19 (Homo sapiens, UniProt P33261); assay: Inhibition of CYP2C19 in human liver microsomes using (S)-mephenytoin as substrate after 10 mins by LC-MS/MS analysis; type: ADME
[20] = […] of CYP450 in human liver microsomes as substrate after 10 mins by LC-MS/MS analysis; type: ADME
[21] = Oral bioavailability in rat at 10 mg/kg; type: ADME, organism-based; conditions: in vivo
[22] = Clearance in monkey at 0.5 mg/kg, iv after 24 hrs; type: ADME, organism-based, Macaca mulatta; conditions: rhesus monkey, in vivo
[23] = AUC in monkey at 10 mg/kg, po; type: ADME, organism-based, Macaca mulatta; conditions: rhesus monkey, in vivo
[24] = Half life in rat at 0.35 mg/kg, iv; type: ADME, organism-based; conditions: in vivo
P-gp = assay: Substrate activity at P-gp (unknown origin) assessed as efflux ratio; type: ADME; conditions: human, not told
[25] = Cmax in rat at 10 mg/kg, po; type: ADME, organism-based; parameters: dose 10 mg/kg, route oral; conditions: in vivo
Cytochrome P450 2A6 = target: T3, Cytochrome P450 2A6 (Homo sapiens, UniProt P11509); assay: Inhibition of CYP2A6 in human liver microsomes using coumarin as substrate after 10 mins by LC-MS/MS analysis; type: ADME
T3 sequence (P11509 whole entry): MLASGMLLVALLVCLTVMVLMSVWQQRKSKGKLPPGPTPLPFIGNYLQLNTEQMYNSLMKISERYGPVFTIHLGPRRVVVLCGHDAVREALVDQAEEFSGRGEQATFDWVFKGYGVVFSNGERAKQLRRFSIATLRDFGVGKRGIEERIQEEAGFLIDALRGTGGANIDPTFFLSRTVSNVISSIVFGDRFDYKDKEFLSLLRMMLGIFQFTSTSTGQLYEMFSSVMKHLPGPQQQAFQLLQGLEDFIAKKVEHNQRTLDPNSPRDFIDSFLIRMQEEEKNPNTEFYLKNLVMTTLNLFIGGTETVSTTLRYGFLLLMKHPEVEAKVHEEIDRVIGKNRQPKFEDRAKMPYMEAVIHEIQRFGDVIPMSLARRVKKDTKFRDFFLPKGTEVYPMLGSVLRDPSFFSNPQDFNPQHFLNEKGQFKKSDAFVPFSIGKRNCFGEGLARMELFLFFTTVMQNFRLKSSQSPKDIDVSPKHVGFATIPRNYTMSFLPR

Metabotropic glutamate receptor 5, sequence (P41594 whole entry): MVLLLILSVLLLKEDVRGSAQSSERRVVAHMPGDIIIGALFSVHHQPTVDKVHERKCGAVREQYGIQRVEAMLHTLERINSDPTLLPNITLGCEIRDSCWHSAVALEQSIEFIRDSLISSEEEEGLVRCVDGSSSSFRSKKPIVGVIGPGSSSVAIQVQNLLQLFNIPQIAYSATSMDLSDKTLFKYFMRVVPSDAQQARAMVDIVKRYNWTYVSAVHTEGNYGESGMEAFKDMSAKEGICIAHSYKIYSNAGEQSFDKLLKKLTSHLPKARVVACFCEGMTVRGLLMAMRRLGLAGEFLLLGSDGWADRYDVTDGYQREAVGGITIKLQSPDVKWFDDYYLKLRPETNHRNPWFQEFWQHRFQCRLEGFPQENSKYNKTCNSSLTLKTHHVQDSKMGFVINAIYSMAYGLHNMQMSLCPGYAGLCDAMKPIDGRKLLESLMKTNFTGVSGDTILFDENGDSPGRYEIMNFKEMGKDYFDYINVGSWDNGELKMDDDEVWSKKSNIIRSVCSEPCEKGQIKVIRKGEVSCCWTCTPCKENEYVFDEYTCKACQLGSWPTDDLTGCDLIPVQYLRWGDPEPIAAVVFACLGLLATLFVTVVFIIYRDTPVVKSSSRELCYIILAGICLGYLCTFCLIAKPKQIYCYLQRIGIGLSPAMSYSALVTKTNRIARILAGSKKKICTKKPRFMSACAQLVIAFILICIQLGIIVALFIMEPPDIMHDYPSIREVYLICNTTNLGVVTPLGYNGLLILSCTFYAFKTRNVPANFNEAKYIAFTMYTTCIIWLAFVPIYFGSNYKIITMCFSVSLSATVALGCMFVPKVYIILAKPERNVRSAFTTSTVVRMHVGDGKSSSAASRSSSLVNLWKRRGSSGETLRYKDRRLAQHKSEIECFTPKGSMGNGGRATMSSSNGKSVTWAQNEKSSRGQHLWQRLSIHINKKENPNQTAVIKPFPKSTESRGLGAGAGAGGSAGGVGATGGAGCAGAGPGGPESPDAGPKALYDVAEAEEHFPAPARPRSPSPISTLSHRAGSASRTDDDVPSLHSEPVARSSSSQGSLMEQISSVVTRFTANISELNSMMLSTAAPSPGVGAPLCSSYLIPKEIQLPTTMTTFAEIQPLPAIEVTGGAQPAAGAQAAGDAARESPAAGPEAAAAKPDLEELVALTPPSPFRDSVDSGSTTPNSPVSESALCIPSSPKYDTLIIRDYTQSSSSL
Cytochrome P450 2C9, sequence (P11712 whole entry): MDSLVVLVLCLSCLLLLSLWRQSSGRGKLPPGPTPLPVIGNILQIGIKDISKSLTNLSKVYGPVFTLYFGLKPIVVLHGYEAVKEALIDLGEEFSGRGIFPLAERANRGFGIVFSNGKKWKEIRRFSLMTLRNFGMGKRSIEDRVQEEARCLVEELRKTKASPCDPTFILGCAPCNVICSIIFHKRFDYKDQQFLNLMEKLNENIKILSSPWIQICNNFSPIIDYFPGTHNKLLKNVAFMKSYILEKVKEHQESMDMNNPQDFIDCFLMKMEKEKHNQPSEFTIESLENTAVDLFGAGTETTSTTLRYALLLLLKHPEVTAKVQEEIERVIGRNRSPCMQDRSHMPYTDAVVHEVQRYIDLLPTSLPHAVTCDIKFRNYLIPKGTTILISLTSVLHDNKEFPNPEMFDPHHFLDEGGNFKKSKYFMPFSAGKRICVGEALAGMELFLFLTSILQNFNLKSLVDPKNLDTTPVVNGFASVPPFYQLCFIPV
Cytochrome P450 2D6, sequence (P10635 whole entry): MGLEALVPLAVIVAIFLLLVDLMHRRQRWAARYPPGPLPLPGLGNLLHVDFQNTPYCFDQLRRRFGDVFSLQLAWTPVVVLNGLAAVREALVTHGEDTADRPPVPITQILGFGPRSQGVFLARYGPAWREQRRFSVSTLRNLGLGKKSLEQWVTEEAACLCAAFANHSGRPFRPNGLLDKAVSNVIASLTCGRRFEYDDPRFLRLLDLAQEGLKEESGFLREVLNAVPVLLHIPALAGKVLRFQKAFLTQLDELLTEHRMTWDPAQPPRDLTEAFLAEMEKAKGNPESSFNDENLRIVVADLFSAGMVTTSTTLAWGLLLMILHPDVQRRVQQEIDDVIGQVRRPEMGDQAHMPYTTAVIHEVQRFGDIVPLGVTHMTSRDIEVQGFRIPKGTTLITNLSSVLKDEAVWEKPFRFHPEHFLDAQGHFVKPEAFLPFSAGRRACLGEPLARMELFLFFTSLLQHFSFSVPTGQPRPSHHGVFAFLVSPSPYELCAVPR
Voltage-gated inwardly rectifying potassium channel KCNH2, sequence (Q12809 whole entry): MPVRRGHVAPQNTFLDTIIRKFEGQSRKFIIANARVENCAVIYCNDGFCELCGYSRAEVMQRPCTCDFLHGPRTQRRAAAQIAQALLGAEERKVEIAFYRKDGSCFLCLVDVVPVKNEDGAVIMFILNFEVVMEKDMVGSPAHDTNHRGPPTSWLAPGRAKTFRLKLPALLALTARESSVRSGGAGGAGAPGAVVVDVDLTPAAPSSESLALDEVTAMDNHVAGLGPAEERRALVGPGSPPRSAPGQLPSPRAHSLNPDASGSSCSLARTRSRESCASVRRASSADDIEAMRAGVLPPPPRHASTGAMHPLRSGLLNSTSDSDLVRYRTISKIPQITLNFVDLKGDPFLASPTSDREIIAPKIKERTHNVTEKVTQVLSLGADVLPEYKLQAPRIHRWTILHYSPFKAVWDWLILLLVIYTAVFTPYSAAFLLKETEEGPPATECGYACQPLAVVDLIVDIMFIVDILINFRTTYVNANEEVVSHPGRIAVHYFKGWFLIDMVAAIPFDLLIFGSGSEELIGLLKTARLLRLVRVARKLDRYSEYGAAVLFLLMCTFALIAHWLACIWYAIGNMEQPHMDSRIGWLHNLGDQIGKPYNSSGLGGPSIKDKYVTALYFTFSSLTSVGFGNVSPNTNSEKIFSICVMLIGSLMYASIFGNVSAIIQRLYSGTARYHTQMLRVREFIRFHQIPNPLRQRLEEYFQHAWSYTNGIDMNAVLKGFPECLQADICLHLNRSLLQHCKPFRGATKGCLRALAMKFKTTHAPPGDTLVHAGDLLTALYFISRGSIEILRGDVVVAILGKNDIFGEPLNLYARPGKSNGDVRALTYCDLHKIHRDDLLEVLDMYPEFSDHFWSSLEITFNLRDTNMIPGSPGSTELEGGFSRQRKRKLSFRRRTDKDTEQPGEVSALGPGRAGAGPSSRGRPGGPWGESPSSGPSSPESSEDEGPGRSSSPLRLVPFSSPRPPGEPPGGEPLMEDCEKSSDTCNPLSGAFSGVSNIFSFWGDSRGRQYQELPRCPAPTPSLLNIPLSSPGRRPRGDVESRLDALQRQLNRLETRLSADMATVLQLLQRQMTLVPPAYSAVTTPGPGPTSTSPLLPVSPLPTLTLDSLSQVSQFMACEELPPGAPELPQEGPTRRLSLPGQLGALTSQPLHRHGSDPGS
Cytochrome P450 3A4, sequence (P08684 whole entry): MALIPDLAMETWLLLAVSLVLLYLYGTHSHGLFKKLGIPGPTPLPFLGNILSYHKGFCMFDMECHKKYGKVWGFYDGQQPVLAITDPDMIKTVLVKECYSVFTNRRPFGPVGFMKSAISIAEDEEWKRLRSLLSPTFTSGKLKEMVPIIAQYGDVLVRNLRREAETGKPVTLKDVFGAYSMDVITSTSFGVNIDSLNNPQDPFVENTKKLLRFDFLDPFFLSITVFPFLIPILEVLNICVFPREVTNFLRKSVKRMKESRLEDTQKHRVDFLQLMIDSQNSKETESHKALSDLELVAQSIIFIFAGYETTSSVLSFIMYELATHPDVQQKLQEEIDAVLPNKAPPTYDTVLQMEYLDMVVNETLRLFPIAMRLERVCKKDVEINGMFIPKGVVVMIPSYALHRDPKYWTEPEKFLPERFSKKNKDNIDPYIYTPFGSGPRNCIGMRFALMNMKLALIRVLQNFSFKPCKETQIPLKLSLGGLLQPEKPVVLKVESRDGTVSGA
Cytochrome P450 2C19, sequence (P33261 whole entry): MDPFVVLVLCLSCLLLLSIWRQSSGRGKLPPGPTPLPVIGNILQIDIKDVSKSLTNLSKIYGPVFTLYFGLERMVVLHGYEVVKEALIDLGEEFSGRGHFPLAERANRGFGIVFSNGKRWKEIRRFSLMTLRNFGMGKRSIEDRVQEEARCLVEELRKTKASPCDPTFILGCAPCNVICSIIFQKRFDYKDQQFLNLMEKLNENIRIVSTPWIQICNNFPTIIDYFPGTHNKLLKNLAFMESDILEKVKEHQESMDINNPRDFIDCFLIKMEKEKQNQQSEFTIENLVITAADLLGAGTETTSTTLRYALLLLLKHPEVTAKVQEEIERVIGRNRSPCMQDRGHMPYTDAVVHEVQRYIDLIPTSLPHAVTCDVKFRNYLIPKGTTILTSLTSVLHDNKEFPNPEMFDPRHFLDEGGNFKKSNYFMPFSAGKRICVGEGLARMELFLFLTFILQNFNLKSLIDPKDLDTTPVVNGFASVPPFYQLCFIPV

Structure (SMILES): N#Cc1ccc(-c2nc3c(o2)CCN(C(=O)c2ccccc2)C3)nc1
pIC50 [1]: 6.63

Structure (SMILES): COc1cccc(C(=O)N2CCc3oc(-c4ccc(F)cn4)nc3C2)c1
remaining at 0.5 h, 1 µM [5]: > 91% | remaining at 0.5 h, 1 µM [10]: > 91% | pIC50 [1]: 6.80

Structure (SMILES): Cc1cc(Cl)cc(C(=O)N2CCc3oc(-c4ccc(F)cn4)nc3C2)c1
remaining at 0.5 h, 1 µM [5]: > 91% | remaining at 0.5 h, 1 µM [10]: > 91% | pIC50 [1]: 7.34

Now from value to compound, other results behind:

pIC50 [1]: 6.75
Structure (SMILES): Cc1ccc(-c2nc3c(o2)CCN(C(=O)c2ccccc2)C3)nc1

pIC50 [1]: 6.76
Structure (SMILES): O=C(c1ccccc1)N1CCc2oc(-c3ccc(Br)cn3)nc2C1

pIC50 [1]: 7.49
Structure (SMILES): O=C(c1ccccc1)N1CCc2oc(-c3ccc(Cl)cn3)nc2C1

Activity (Rattus norvegicus [2]): Dose-dependent effect | solubility [3]: 0.016 mg/mL (≈ 49.5 µM) | pIC50 (Cytochrome P450 3A4): < 4.30 | Vd [4]: 0.73 L/kg | remaining at 0.5 h, 1 µM [5]: 91 to 97% | pIC50 (Cytochrome P450 2D6): < 4.30 | AUC [6]: 1.29 µg·h/mL | AUC [8]: 2.06 µg·h/mL | Papp [9]: 345 nm/s | remaining at 0.5 h, 1 µM [10]: 91 to 97% | Cmax [11]: 3.91 µg/mL | clearance [12]: 0.276 L/h/kg | pIC50 (Cytochrome P450 1A2): < 4.30 | Vd [14]: 1.6 L/kg | pIC50 (Cytochrome P450 2C8): < 4.30 | pIC50 [1]: 7.27 | pIC50 (Cytochrome P450 2C9): < 4.30 | AUC [15]: 37.4 µg·h/mL | half-life [17]: 4.8 h | bioavailability [19]: 139% | pIC50 (Cytochrome P450 2C19): < 4.30 | Activity [20]: Not Active | bioavailability [21]: 102% | clearance [22]: 0.252 L/h/kg | AUC [23]: 57.1 µg·h/mL | half-life [24]: 2.1 h | efflux ratio (P-gp): 1.1 | Cmax [25]: 2.75 µg/mL | pIC50 (Cytochrome P450 2A6): < 4.30
Structure (SMILES): O=C(c1ccccc1)N1CCc2oc(-c3ccc(F)cn3)nc2C1
Occ (Rattus norvegicus [7]): 50% | Activity (Salmonella typhimurium): Non-Toxic | Activity (Rattus norvegicus [13]): Non-Toxic | Activity (Rattus norvegicus [16]): Active | pIC50 [18]: 4.19
